Converted amounts (≈) assume the structure as drawn. “And” between values parts separate entries of the source, which are not always exact repeats. Identical values can stand only once. Like-named read-outs stand apart in the source and are kept apart here.
Assays:
[1] = tested on: renal tissue of Mus musculus mice; assay: Oxidative stress and kidney toxicity markers in renal tissue after repeated antibiotic administration to mice; format: in vivo
P. vulgaris (426 MTCC) = assay: Zone of inhibition; format: cell-based; design: unit not given here
Text: (§1) Where X and Y are respective additive agents mixed in the formulation with water for injection.

S. aureus (737 MTCC) = assay: Zone of inhibition; format: cell-based; design: unit not given here
Text: as §1

C. braakii (2690 MTCC) = assay: Zone of inhibition; format: cell-based; design: unit not given here
Text: as §1

E. coli (1687 MTCC) = assay: Zone of inhibition; format: cell-based; design: unit not given here
Text: as §1

A. baumannii (1425 MTCC) = assay: Zone of inhibition; format: cell-based; design: unit not given beside the values
Text: as §1

[2] = tested on: P. aeruginosa (1688 MTCC); assay: Zone of inhibition; format: cell-based; design: unit not given beside the values
Text: as §1

[3] = tested on: K. pneumoniae (10031 ATCC); assay: Zone of inhibition; format: cell-based; design: unit not given beside the values
Text: as §1

C. braakii MTCC 2690 = assay: In-vitro microbial efficacy (MIC); format: cell-based
A. baumanii MTCC 1425 = assay: In-vitro microbial efficacy (MIC); format: cell-based
P. vulgaris MTCC 426 = assay: In-vitro microbial efficacy (MIC); format: cell-based
MRSA = assay: In-vitro microbial efficacy (MIC); format: cell-based
E. coli MTCC 1687 = assay: In-vitro microbial efficacy (MIC); format: cell-based
N. mucosa MTCC 1722 = assay: In-vitro microbial efficacy (MIC); format: cell-based
E. cloacae MTCC 509 = assay: In-vitro microbial efficacy (MIC); format: cell-based
P. aeruginosa MTCC 1688 = assay: In-vitro microbial efficacy (MIC); format: cell-based
[4] = tested on: K. pneumoniae 10031(ATCC); assay: In-vitro microbial efficacy (MIC); format: cell-based
M. smegmatis MTCC 995 = assay: In-vitro microbial efficacy (MIC); format: cell-based
S. aureus MTCC 737 = assay: In-vitro microbial efficacy (MIC); format: cell-based
B. subtilis MTCC 736 = assay: In-vitro microbial efficacy (MIC); format: cell-based

Compound: NCC[C@H](O)C(=O)N[C@@H]1C[C@H](N)[C@@H](O[C@H]2O[C@H](CN)[C@@H](O)[C@H](O)[C@H]2O)[C@H](O)[C@H]1O[C@H]1O[C@H](CO)[C@@H](O)[C@H](N)[C@H]1O [Amikacin]
- Catalase activity in renal tissue ([1]; mouse, in vivo): decrease
- Glutathione reductase activity in renal tissue ([1]; mouse, in vivo): decrease
- MDA activity in renal tissue ([1]; mouse, in vivo): increase
- SOD activity in renal tissue ([1]; mouse, in vivo): decrease

Compound: C[C@@H](O)[C@H]1C(=O)N2C(C(=O)O)=C(S[C@@H]3CN[C@H](C(=O)Nc4cccc(C(=O)O)c4)C3)[C@H](C)[C@H]12 [Ertapenem]
- Zone of Inhibition (P. vulgaris (426 MTCC); drug concentration 0.005 mcg): 9.54
- Zone of Inhibition (P. vulgaris (426 MTCC); drug concentration 0.05 mcg): 16.74
- Zone of Inhibition (P. vulgaris (426 MTCC); drug concentration 0.5 mcg): 18.50
- Zone of Inhibition (S. aureus (737 MTCC); drug concentration 0.005 mcg): 9.44
- Zone of Inhibition (S. aureus (737 MTCC); drug concentration 0.05 mcg): 14.55
- Zone of Inhibition (S. aureus (737 MTCC); drug concentration 0.5 mcg): 21.33
- Zone of Inhibition (C. braakii (2690 MTCC); drug concentration 0.005 mcg): 10.52
- Zone of Inhibition (C. braakii (2690 MTCC); drug concentration 0.05 mcg): 18.95
- Zone of Inhibition (C. braakii (2690 MTCC); drug concentration 0.5 mcg): 27.88
- Zone of Inhibition (E. coli (1687 MTCC); drug concentration 0.005 mcg): 10.10
- Zone of Inhibition (E. coli (1687 MTCC); drug concentration 0.05 mcg): 15.49
- Zone of Inhibition (E. coli (1687 MTCC); drug concentration 0.5 mcg): 21.45
- Zone of Inhibition (E. coli (1687 MTCC); drug concentration 1.0 mcg): 23.39
- Zone of Inhibition (A. baumannii (1425 MTCC); drug concentration 0.005 mcg): Nil
- Zone of Inhibition (A. baumannii (1425 MTCC); drug concentration 0.05 mcg): 13.37
- Zone of Inhibition (A. baumannii (1425 MTCC); drug concentration 0.5 mcg): 18.25
- Zone of Inhibition ([2]; drug concentration 0.005 mcg): Nil
- Zone of Inhibition ([2]; drug concentration 0.05 mcg): Nil
- Zone of Inhibition ([2]; drug concentration 0.5 mcg): Nil
- Zone of Inhibition ([3]; drug concentration 0.005 mcg): Nil
- Zone of Inhibition ([3]; drug concentration 0.05 mcg): Nil
- Zone of Inhibition ([3]; drug concentration 0.5 mcg): 15.90

Compound: CCN[C@@H]1C[C@H](N)[C@@H](O[C@H]2O[C@H](CN)CC[C@H]2N)[C@H](O)[C@H]1O[C@H]1OC[C@](C)(O)[C@H](NC)[C@H]1O [Etimicin]
- MIC (C. braakii MTCC 2690): 2 µg/mL (≈ 4.19 µM)
- MIC (A. baumanii MTCC 1425): 2 µg/mL (≈ 4.19 µM)
- MIC (P. vulgaris MTCC 426): 4 µg/mL (≈ 8.38 µM)
- Zone of Inhibition (P. vulgaris (426 MTCC); drug concentration 0.005 mcg): Nil
- Zone of Inhibition (P. vulgaris (426 MTCC); drug concentration 0.05 mcg): Nil
- Zone of Inhibition (P. vulgaris (426 MTCC); drug concentration 0.5 mcg): 15.19 and 13.97
- Zone of Inhibition (S. aureus (737 MTCC); drug concentration 0.005 mcg): Nil
- Zone of Inhibition (S. aureus (737 MTCC); drug concentration 0.05 mcg): 11.15 and 10.12
- Zone of Inhibition (S. aureus (737 MTCC); drug concentration 0.5 mcg): 17.50 and 16.65
- Zone of Inhibition (C. braakii (2690 MTCC); drug concentration 0.005 mcg): Nil
- Zone of Inhibition (C. braakii (2690 MTCC); drug concentration 0.05 mcg): Nil
- Zone of Inhibition (C. braakii (2690 MTCC); drug concentration 0.5 mcg): 18.70 and 19.10
- Zone of Inhibition (E. coli (1687 MTCC); drug concentration 0.005 mcg): Nil
- Zone of Inhibition (E. coli (1687 MTCC); drug concentration 0.05 mcg): 9.42 and 9.31
- Zone of Inhibition (E. coli (1687 MTCC); drug concentration 0.5 mcg): 16.50 and 15.70
- Zone of Inhibition (E. coli (1687 MTCC); drug concentration 1.0 mcg): 17.57
- MIC (MRSA): 4 µg/mL (≈ 8.38 µM)
- MIC (E. coli MTCC 1687): 0.125 µg/mL (≈ 0.262 µM)
- Zone of Inhibition (A. baumannii (1425 MTCC); drug concentration 0.005 mcg): Nil
- Zone of Inhibition (A. baumannii (1425 MTCC); drug concentration 0.5 mcg): 13.5 and 12.88
- Zone of Inhibition ([2]; drug concentration 0.005 mcg): Nil
- Zone of Inhibition ([2]; drug concentration 0.05 mcg): Nil
- Zone of Inhibition ([2]; drug concentration 0.5 mcg): 12.49 and 12.60
- Zone of Inhibition ([3]; drug concentration 0.005 mcg): nil and Nil
- Zone of Inhibition ([3]; drug concentration 0.05 mcg): nil and Nil
- Zone of Inhibition ([3]; drug concentration 0.5 mcg): 16.64 and 16.50
- MIC (N. mucosa MTCC 1722): 1 µg/mL (≈ 2.09 µM)
- MIC (E. cloacae MTCC 509): 2 µg/mL (≈ 4.19 µM)
- MIC (P. aeruginosa MTCC 1688): 8 µg/mL (≈ 16.8 µM)
- MIC [4]: 8 µg/mL (≈ 16.8 µM)
- MIC (M. smegmatis MTCC 995): 2 µg/mL (≈ 4.19 µM)
- MIC (S. aureus MTCC 737): 8 µg/mL (≈ 16.8 µM)
- MIC (B. subtilis MTCC 736): 8 µg/mL (≈ 16.8 µM)
- Creatnine level in renal tissue ([1]; Mus musculus mice, repeated administration for 7 days consecutively (FIG. 5)): significantly decreased
- SOD activity in renal tissue ([1]; mice, after administration of antibiotic (FIG. 1)): decrease
- Catalase activity in renal tissue ([1]; mice, after administration of antibiotic (FIG. 2)): decrease
- MDA activity in renal tissue ([1]; mice, after administration of antibiotic (FIG. 3)): increase
- Glutathione reductase activity in renal tissue ([1]; mice, after administration of antibiotic (FIG. 4)): decrease

Compound: C[C@@H](O)[C@H]1C(=O)N2C(C(=O)O)=C(S[C@@H]3CN[C@H](C(=O)N(C)C)C3)[C@H](C)[C@H]12 [Meropenem]
- MIC (C. braakii MTCC 2690; Citrobacter braakii, MTCC2690, read-out: MIC): 0.25 µg/mL (≈ 0.652 µM)
- MIC (A. baumanii MTCC 1425; Acinetobacter baumannii, MTCC1425, read-out: MIC): 0.125 µg/mL (≈ 0.326 µM)
- MIC (P. vulgaris MTCC 426; Proteus vulgaris, MTCC426, read-out: MIC): 0.0625 µg/mL (≈ 0.163 µM)
- Zone of Inhibition (P. vulgaris (426 MTCC); drug concentration 0.005 mcg): 10.84
- Zone of Inhibition (P. vulgaris (426 MTCC); drug concentration 0.05 mcg): 18.01
- Zone of Inhibition (P. vulgaris (426 MTCC); drug concentration 0.5 mcg): 21.32
- Zone of Inhibition (S. aureus (737 MTCC); drug concentration 0.005 mcg): 11.45
- Zone of Inhibition (S. aureus (737 MTCC); drug concentration 0.05 mcg): 16.29
- Zone of Inhibition (S. aureus (737 MTCC); drug concentration 0.5 mcg): 22.76
- Zone of Inhibition (C. braakii (2690 MTCC); drug concentration 0.005 mcg): 9.35
- Zone of Inhibition (C. braakii (2690 MTCC); drug concentration 0.05 mcg): 23.35
- Zone of Inhibition (C. braakii (2690 MTCC); drug concentration 0.5 mcg): 28.60
- Zone of Inhibition (E. coli (1687 MTCC); drug concentration 0.005 mcg): 8.88
- Zone of Inhibition (E. coli (1687 MTCC); drug concentration 0.05 mcg): 15.70
- Zone of Inhibition (E. coli (1687 MTCC); drug concentration 0.5 mcg): 22.97
- MIC (MRSA; Staphylococcus aureus, read-out: MIC): 0.5 µg/mL (≈ 1.3 µM)
- MIC (E. coli MTCC 1687; Escherichia coli, MTCC1687, read-out: MIC): 0.0625 µg/mL (≈ 0.163 µM)
- Zone of Inhibition (A. baumannii (1425 MTCC); drug concentration 0.005 mcg): Nil
- Zone of Inhibition (A. baumannii (1425 MTCC); drug concentration 0.05 mcg): 14.50
- Zone of Inhibition (A. baumannii (1425 MTCC); drug concentration 0.5 mcg): 19.81
- Zone of Inhibition ([2]; drug concentration 0.005 mcg): Nil
- Zone of Inhibition ([2]; drug concentration 0.05 mcg): 13.64
- Zone of Inhibition ([2]; drug concentration 0.5 mcg): 21.85
- Zone of Inhibition ([3]; drug concentration 0.005 mcg): Nil
- Zone of Inhibition ([3]; drug concentration 0.05 mcg): 14.36
- Zone of Inhibition ([3]; drug concentration 0.5 mcg): 23.87
- MIC (N. mucosa MTCC 1722; read-out: MIC): 0.125 µg/mL (≈ 0.326 µM)
- MIC (E. cloacae MTCC 509; Enterobacter cloacae, MTCC509, read-out: MIC): 0.125 µg/mL (≈ 0.326 µM)
- MIC (P. aeruginosa MTCC 1688; Pseudomonas aeruginosa, MTCC1688, read-out: MIC): 2 µg/mL (≈ 5.22 µM)
- MIC ([4]; Klebsiella pneumoniae, read-out: MIC): 1 µg/mL (≈ 2.61 µM)
- MIC (M. smegmatis MTCC 995; Mycolicibacterium smegmatis, MTCC995, read-out: MIC): 0.25 µg/mL (≈ 0.652 µM)
- MIC (S. aureus MTCC 737; Staphylococcus aureus, MTCC737, read-out: MIC): 0.5 µg/mL (≈ 1.3 µM)
- MIC (B. subtilis MTCC 736; Bacillus subtilis, MTCC736, read-out: MIC): 2 µg/mL (≈ 5.22 µM)
- Catalase activity in renal tissue ([1]; mouse, in vivo): decrease
- Glutathione reductase activity in renal tissue ([1]; mouse, in vivo): decrease
- MDA activity in renal tissue ([1]; mouse, in vivo): increase
- SOD activity in renal tissue ([1]; mouse, in vivo): decrease

Compound: NC[C@H]1O[C@H](O[C@H]2[C@H](O)[C@@H](O[C@H]3O[C@H](CO)[C@@H](O)[C@H](N)[C@H]3O)[C@H](N)C[C@@H]2N)[C@H](N)C[C@@H]1O [Tobramycin]
- Catalase activity in renal tissue ([1]; mouse, in vivo): decrease
- Glutathione reductase activity in renal tissue ([1]; mouse, in vivo): decrease
- MDA activity in renal tissue ([1]; mouse, in vivo): increase
- SOD activity in renal tissue ([1]; mouse, in vivo): decrease
